Experimental data as given in publication PMC5415745, “Drug-transporter mediated interactions between anthelminthic and antiretroviral drugs across the Caco-2 cell monolayers” (BMC Pharmacology & Toxicology, 2017).
Values joined by “and” are separate entries in the source; they are usually repeats but may differ in a detail not shown here. Identical values can stand only once. “Also recorded” adds a separate entry of the source.

System: Caco-2 cell monolayers
Assay: Bidirectional (AP→BL, BL→AP) drug transport across Caco-2 cell monolayers in transwells: cumulative transport, Papp, efflux ratio; HPLC or radiolabeled assay
[1] = 120 min, individual samples 1-3
[2] = 180 min, individual samples 1-3
[3] = 240 min, individual samples 1-3
[4] = IVM alone (SQV experiment), 60 min, mean
[5] = IVM alone (SQV experiment), 120 min, mean
[6] = IVM alone (SQV experiment), 120 min, samples 1-3
[7] = IVM alone (SQV experiment), 180 min, mean
[8] = IVM alone (SQV experiment), 180 min, samples 1-3
[9] = IVM alone (SQV experiment), 240 min, mean
[10] = IVM alone (SQV experiment), 240 min, samples 1-3
[11] = IVM alone (SQV experiment), after 60min, individual samples
[12] = IVM alone (SQV experiment), after 60min, mean
[13] = IVM alone, 60 min, individual experiments 1-3
[14] = IVM alone, 120 min, individual experiments 1-3
[15] = IVM alone, 180 min, individual experiments 1-3
[16] = IVM alone, 240 min, individual experiments 1-3
[17] = [3H] IVM alone, 60 min, individual experiments 1-3
[18] = [3H] IVM alone, 60 min, mean, n=3
[19] = [3H] IVM alone, 120 min, individual experiments 1-3
[20] = [3H] IVM alone, 120 min, mean, n=3
[21] = [3H] IVM alone, 180 min, individual experiments 1-3
[22] = [3H] IVM alone, 180 min, mean, n=3
[23] = [3H] IVM alone, 240 min, individual experiments 1-3
[24] = [3H] IVM alone, 240 min, mean, n=3
[25] = [3H] IVM alone, after 60 min, mean, n=3
[26] = [3H] IVM alone, after 60 min, samples 1-3
[27] = labelled drug is the interacting drug
[28] = samples after 60min, individual samples 1-3, IVM alone
[29] = samples after 60min, mean n=3, IVM alone

Method: The monolayers used were of between passage 20 and 65 after 15 days of growth. Each experiment was performed in duplicate using two six well-transwell culture plates. The cells were trypsinized as described earlier, and after centrifugation the pellet re-suspended in fresh DMEM (+15%), and the cells counted using a cell counter. A volume of DMEM was added enough to give a cell count of 2 × 10^6 cells per ml, and cells were seeded on the transwell culture plates at a density of 2 × 10^4 cells/cm^2 (~ 100,000 cells per well, since insert membrane growth area = 4.67 cm^2). The plates were then incubated at 37°C and 10% CO2 in a humidified chamber and the media changed every 2-3 days, by aspirating using a suction pump and replacing with an equal volume of DMEM. Transport experiments were conducted 15 to 20 days after seeding. The TEER across the cell monolayers was monitored using a Millicell-ERS in order to assess cell monolayer integrity and the monolayers considered appropriate for the experiment when the TEER values were typically above 500 cm^2 [49, 70].
Prior to transport studies, each monolayer was washed and equilibrated with the transport medium (DMEM without FBS). The medium was removed from all AP and BL compartments of the transwells and replaced with 2 ml of the transport medium (DMEM alone), to both compartments and equilibrated for 1 h (37°C, 10% CO2 incubator), after which the TEER was re-assessed and labeled. The medium was then removed from both compartments and replaced with an equal volume of pre-warmed medium containing the compound of interest at the appropriate concentration. For the AP → BL transport, 2 ml of medium containing the desired drug was placed in the AP chamber and 2 ml of the medium alone in the BL chamber, whereas 2 ml of medium containing the drug was placed in the BL and 2 ml of medium on the AP chamber for the BL → AP transport [71]. The effect of the second drug was then assessed by adding the medium containing the original drug and the drug under study to the AP side for AP → BL transport with the medium containing the original drug alone in the BL chamber, and vice-versa for the BL → AP transport. Transport in each direction was done in triplicate. The transwell plates were then incubated (37°C, 10% CO2 incubator), and 100μl of the samples from the AP and BL compartments were taken at 60, 120, 180 and 240 min and quantified either by HPLC method described earlier [45], or by the use of a liquid scintillating counter depending on the drug under study. The HPLC method involved liquid - liquid extraction followed by ultra-high performance liquid chromatography using a Hypurity C18 column and ultraviolet detection set at a wavelength of 215 nm. The mobile phase consisted of ammonium formate, acetonitrile and methanol (57:38:5 v/v). Separation was facilitated via isocratic elution at a flow rate of 1.5 ml/min. For HPLC assays, the concentration used for each drug was 20μg/ml. The concentrations that offered the best detection were selected for radiolabeled assay. […] The integrity of the CCM during the experiment was monitored by measuring the TEER at the beginning (0 min) and the end of the experiment (240min).
The results were expressed as apparent permeability coefficient (Papp, unit: cms^-1), the amount of compound transported per second. Papp values were calculated for both AP to BL (PappAtoB), and BL to AP (PappBtoA) movement of the compound. Papp was calculated using the following equation [52, 72]: • Papp (cm/s) = (dQ/dt) x (1/(ACO) • dQ/dt = Steady-state flux (dpm s^-1 or μmol s^-1) • A = Surface area of the filter (cm^2) • CO = Initial concentration in the donor chamber (dpm litre ^-1 or μM)
The quotient of secretory permeability and absorptive permeability (PappBL-AP/PappAP-BL) constitutes the efflux ratio, while the reverse (PappAP-BL/PappBL-AP) is the uptake ratio [71].

**Q.** How did the “Apical to basal transport (cumulative, receiver)” value (60 min, individual samples 1-3) turn out when CC[C@H](C)[C@H]1O[C@]2(CC[C@@H]1C)C[C@@H]1C[C@@H](C/C=C(\C)[C@@H](O[C@H]3C[C@H](OC)[C@@H](O[C@H]4C[C@H](OC)[C@@H](O)[C@H](C)O4)[C@H](C)O3)[C@@H](C)/C=C/C=C3\CO[C@@H]4[C@H](O)C(C)=C[C@@H](C(=O)O1)[C@]34O)O2 [IVM, ivermectin] was run?
**A.** 0.57 pmol and 0.44 pmol and 1.00 pmol

**Q.** And the “Basal to apical transport (cumulative, receiver)” value (60 min, individual samples 1-3)?
**A.** 0.65 pmol and 0.55 pmol and 0.96 pmol

**Q.** And the “Apical to basal transport (cumulative, receiver), Mean” value (60 min, mean n=3)?
**A.** 0.67 pmol

**Q.** And the “Basal to apical transport (cumulative, receiver), Mean” value (60 min, mean n=3)?
**A.** 0.72 pmol

**Q.** And the “Apical to basal transport (cumulative, receiver)” value [1]?
**A.** 0.50 pmol and 0.61 pmol and 1.00 pmol

**Q.** And the “Basal to apical transport (cumulative, receiver)” value [1]?
**A.** 1.34 pmol and 1.05 pmol and 1.67 pmol

**Q.** And the “Apical to basal transport (cumulative, receiver), Mean” value (120 min, mean n=3)?
**A.** 0.71 pmol

**Q.** And the “Apical to basal transport (cumulative, receiver)” value [2]?
**A.** 0.66 pmol and 0.77 pmol and 1.54 pmol

**Q.** And the “Basal to apical transport (cumulative, receiver)” value [2]?
**A.** 1.45 pmol and 1.96 pmol

**Q.** And the “Apical to basal transport (cumulative, receiver), Mean” value (180 min, mean n=3)?
**A.** 0.99 pmol

**Q.** What about the “Basal to apical transport (cumulative, receiver), Mean” value (180 min, mean n=3) of the same compound?
**A.** 1.63 pmol

**Q.** And the “Apical to basal transport (cumulative, receiver)” value [3]?
**A.** 0.96 pmol and 0.81 pmol and 1.30 pmol

**Q.** And the “Basal to apical transport (cumulative, receiver)” value [3]?
**A.** 2.52 pmol and 1.59 pmol and 2.27 pmol

**Q.** What about the “Apical to basal transport (cumulative, receiver), Mean” value (240 min, mean n=3) of the same compound?
**A.** 1.03 pmol

**Q.** What about the “Basal to apical transport (cumulative, receiver), Mean” value (240 min, mean n=3) of the same compound?
**A.** 2.13 pmol

**Q.** What about the “Apical to basal transport Mean” value [4] of the same compound?
**A.** 11.45 fmol

**Q.** What about the “Basal to apical transport Mean” value [4] of the same compound?
**A.** 11.69 fmol

**Q.** What about the “Basal to apical transport” value (IVM alone (SQV experiment), 60 min, samples 1-3) of the same compound?
**A.** 12.29 fmol and 9.26 fmol

**Q.** And the “Apical to basal transport Mean” value [5]?
**A.** 15.92 fmol

**Q.** And the “Basal to apical transport Mean” value [5]?
**A.** 17.90 fmol

**Q.** And the “Apical to basal transport” value [6]?
**A.** 14.08 fmol and 21.31 fmol and 12.37 fmol

**Q.** And the “Basal to apical transport” value [6]?
**A.** 21.06 fmol and 15.84 fmol and 16.78 fmol

**Q.** What about the “Apical to basal transport Mean” value [7] of the same compound?
**A.** 20.75 fmol

**Q.** And the “Basal to apical transport Mean” value [7]?
**A.** 25.75 fmol

**Q.** What about the “Apical to basal transport” value [8] of the same compound?
**A.** 23.29 fmol and 18.34 fmol and 20.63 fmol

**Q.** And the “Basal to apical transport” value [8]?
**A.** 26.26 fmol

**Q.** And the “Apical to basal transport Mean” value [9]?
**A.** 25.60 fmol

**Q.** And the “Basal to apical transport Mean” value [9]?
**A.** 35.30 fmol

**Q.** What about the “Apical to basal transport” value [10] of the same compound?
**A.** 21.18 fmol and 30.03 fmol and 25.60 fmol

**Q.** What about the “Basal to apical transport” value [10] of the same compound?
**A.** 45.23 fmol and 24.14 fmol and 36.53 fmol

**Q.** And the “Apical to basal transport Conc. Basal” value [11]?
**A.** 15.84 fmol and 11.06 fmol and 7.45 fmol

**Q.** What about the “Basal to apical transport Conc. Apical” value [11] of the same compound?
**A.** 13.53 fmol

**Q.** What about the PappAB [11] of the same compound?
**A.** 10.74 10^6 cm/s and 7.18 10^6 cm/s and 4.31 10^6 cm/s

**Q.** What about the PappBA [11] of the same compound?
**A.** 7.36 10^6 cm/s and 5.84 10^6 cm/s and 4.54 10^6 cm/s

**Q.** What about the “PappAB Mean” value [12] of the same compound?
**A.** 7.41 10^6 cm/s

**Q.** And the “PappBA Mean” value [12]?
**A.** 5.92 10^6 cm/s

**Q.** What about the “Apical to basal transport” value [13] of the same compound?
**A.** 8300 fmol and 7460 fmol and 8350 fmol

**Q.** And the “Basal to apical transport” value [13]?
**A.** 15750 fmol and 21160 fmol

**Q.** And the “Apical to basal transport Mean” value (IVM alone, 60 min, mean, n=3)?
**A.** 8040 fmol

**Q.** What about the “Basal to apical transport Mean” value (IVM alone, 60 min, mean, n=3) of the same compound?
**A.** 17700 fmol

**Q.** What about the “Apical to basal transport” value [14] of the same compound?
**A.** 17040 fmol and 10980 fmol and 9220 fmol

**Q.** And the “Basal to apical transport” value [14]?
**A.** 21400 fmol and 27210 fmol and 31370 fmol

**Q.** And the “Apical to basal transport Mean” value (IVM alone, 120 min, mean, n=3)?
**A.** 12410 fmol

**Q.** What about the “Basal to apical transport Mean” value (IVM alone, 120 min, mean, n=3) of the same compound?
**A.** 26660 fmol

**Q.** And the “Apical to basal transport” value [15]?
**A.** 20270 fmol and 13190 fmol and 16360 fmol

**Q.** What about the “Basal to apical transport” value [15] of the same compound?
**A.** 26810 fmol and 40700 fmol

**Q.** And the “Apical to basal transport Mean” value (IVM alone, 180 min, mean, n=3)?
**A.** 16610 fmol

**Q.** What about the “Basal to apical transport Mean” value (IVM alone, 180 min, mean, n=3) of the same compound?
**A.** 31010 fmol

**Q.** And the “Apical to basal transport” value [16]?
**A.** 16260 fmol and 22170 fmol and 13750 fmol

**Q.** And the “Basal to apical transport” value [16]?
**A.** 35200 fmol and 45800 fmol

**Q.** And the “Apical to basal transport Mean” value (IVM alone, 240 min, mean, n=3)?
**A.** 17390 fmol

**Q.** And the “Basal to apical transport Mean” value (IVM alone, 240 min, mean, n=3)?
**A.** 37700 fmol

**Q.** What about the “Apical to basal transport” value [17] of the same compound?
**A.** 14.35 fmol and 14.86 fmol and 15.44 fmol

**Q.** What about the “Basal to apical transport” value [17] of the same compound?
**A.** 12.86 fmol and 12.68 fmol

**Q.** What about the “Apical to basal transport Mean” value [18] of the same compound?
**A.** 14.88 fmol

**Q.** And the “Basal to apical transport Mean” value [18]?
**A.** 13.03 fmol

**Q.** And the “Apical to basal transport” value [19]?
**A.** 20.80 fmol and 20.34 fmol and 21.75 fmol

**Q.** And the “Basal to apical transport” value [19]?
**A.** 17.34 fmol and 18.56 fmol and 18.52 fmol

**Q.** And the “Apical to basal transport Mean” value [20]?
**A.** 20.96 fmol

**Q.** And the “Basal to apical transport Mean” value [20]?
**A.** 18.14 fmol

**Q.** What about the “Apical to basal transport” value [21] of the same compound?
**A.** 25.72 fmol and 23.95 fmol and 25.43 fmol

**Q.** And the “Basal to apical transport” value [21]?
**A.** 17.07 fmol and 23.80 fmol and 31.79 fmol

**Q.** What about the “Apical to basal transport Mean” value [22] of the same compound?
**A.** 25.03 fmol

**Q.** And the “Basal to apical transport Mean” value [22]?
**A.** 24.22 fmol

**Q.** What about the “Apical to basal transport” value [23] of the same compound?
**A.** 25.16 fmol and 26.38 fmol and 23.06 fmol

**Q.** What about the “Basal to apical transport” value [23] of the same compound?
**A.** 22.70 fmol and 28.67 fmol and 34.20 fmol

**Q.** And the “Apical to basal transport Mean” value [24]?
**A.** 24.86 fmol

**Q.** What about the “Basal to apical transport Mean” value [24] of the same compound?
**A.** 28.52 fmol

**Q.** What about the “PappAB Mean” value [25] of the same compound?
**A.** 14.06 10^6 cm/s

**Q.** What about the “PappBA Mean” value [25] of the same compound?
**A.** 11.32 10^6 cm/s

**Q.** And the “Apical to basal transport Conc. Apical” value [26]?
**A.** 101.63 fmol and 106.60 fmol and 109.59 fmol

**Q.** And the “Basal to apical transport Conc. Apical” value [26]?
**A.** 13.56 fmol

**Q.** What about the “Basal to apical transport Conc. Basal” value [26] of the same compound?
**A.** 110.67 fmol and 126.53 fmol and 111.99 fmol

**Q.** What about the PappAB Papp [26] of the same compound?
**A.** 16.8 ×10⁻⁶ cm/s and 13.7 ×10⁻⁶ cm/s and 11.7 ×10⁻⁶ cm/s

**Q.** What about the PappBA Papp [26] of the same compound?
**A.** 14.6 ×10⁻⁶ cm/s and 9.96 ×10⁻⁶ cm/s and 9.43 ×10⁻⁶ cm/s

**Q.** And the “Effect on the (efflux) transport of SQV” value [27]?
**A.** significantly inhibited

**Q.** And the “Effect on the efflux of EFV” value [27]?
**A.** increased; also recorded: marginally significant increase

**Q.** What about the “Effect on the efflux transport of LPV” value [27] of the same compound?
**A.** significantly inhibited; also recorded: eightfold inhibition

**Q.** What about the “Effect on the transport of NVP” value [27] of the same compound?
**A.** did not appear to significantly influence

**Q.** What about the “PappAB Papp” value [28] of the same compound?
**A.** 7.59 10^9 cm/s and 4.95 10^9 cm/s and 10.26 10^9 cm/s

**Q.** And the “PappBA Papp” value [28]?
**A.** 10.18 10^9 cm/s and 5.89 10^9 cm/s and 10.76 10^9 cm/s

**Q.** What about the “PappAB Mean” value [29] of the same compound?
**A.** 7.60 10^9 cm/s

**Q.** What about the “PappBA Mean” value [29] of the same compound?
**A.** 8.94 10^9 cm/s
